Patent publication US20250346600A1, “TRICYCLIC DERIVATIVES AND RELATED USES” (MOMA Therapeutics, Inc., priority 2023, published 2025)

What was measured:
[1] = target: T1, Full length WRN protein (aa 2-1432) (Homo sapiens (Human), UniProt Q14191); assay: WRN ATPase ADP-Glo biochemical assay, Assay Format A (10 μM ATP); conditions: 0.25 nM WRN, 100 nM C6.18 ssDNA, 30 min preincubation, read-out: ATPase ADPGlo AC50 (uM)- Assay Format A
In short: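 ADP-Glo luminescence measured hydrolysis of ATP by purified, baculovirus-expressed N-terminally tagged full-length WRN. Enzyme (0.5 nM) was preincubated 30 min with compound, then 200 nM ssDNA C6.18 plus 20 μM ATP were added (pre-mix levels) for 30 min at RT. IC50s come from four-parameter fits, geometric mean of at least two trials.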

HCT116 cells = assay: HCT116 (MSI) 7 day viability, CellTiter Glo; type: cell-based; conditions: Homo sapiens, HCT-116, 168 h, 7 days, read-out: HCT116 (MSI) Viability 7 Day Abs AC50
In short: (§1)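 10 mM DMSO stocks serially diluted 3-fold, 10 steps; cells added (HCT116 50/well, HT29 500/well); 7 d, 37 °C, 5% CO2; CellTiter Glo 20 min RT; luminescence.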

HT29 cells = assay: HT29 (MSS) 7 day viability, CellTiter Glo; type: cell-based; conditions: Homo sapiens, HT-29, 168 h, 7 days, read-out: HT29 (MSS) Viability 7 Day CTGAbs AC50
In short: as §1

[2] = target: T1, Full length WRN protein (aa 2-1432); assay: WRN ATPase ADP-Glo biochemical assay, Assay Format B (100 μM ATP); conditions: 0.25 nM WRN, 100 nM C6.18 ssDNA, 60 min preincubation, read-out: ATPase ADPGlo AC50 (uM)- Assay Format B

T1 sequence (Q14191 2-1432): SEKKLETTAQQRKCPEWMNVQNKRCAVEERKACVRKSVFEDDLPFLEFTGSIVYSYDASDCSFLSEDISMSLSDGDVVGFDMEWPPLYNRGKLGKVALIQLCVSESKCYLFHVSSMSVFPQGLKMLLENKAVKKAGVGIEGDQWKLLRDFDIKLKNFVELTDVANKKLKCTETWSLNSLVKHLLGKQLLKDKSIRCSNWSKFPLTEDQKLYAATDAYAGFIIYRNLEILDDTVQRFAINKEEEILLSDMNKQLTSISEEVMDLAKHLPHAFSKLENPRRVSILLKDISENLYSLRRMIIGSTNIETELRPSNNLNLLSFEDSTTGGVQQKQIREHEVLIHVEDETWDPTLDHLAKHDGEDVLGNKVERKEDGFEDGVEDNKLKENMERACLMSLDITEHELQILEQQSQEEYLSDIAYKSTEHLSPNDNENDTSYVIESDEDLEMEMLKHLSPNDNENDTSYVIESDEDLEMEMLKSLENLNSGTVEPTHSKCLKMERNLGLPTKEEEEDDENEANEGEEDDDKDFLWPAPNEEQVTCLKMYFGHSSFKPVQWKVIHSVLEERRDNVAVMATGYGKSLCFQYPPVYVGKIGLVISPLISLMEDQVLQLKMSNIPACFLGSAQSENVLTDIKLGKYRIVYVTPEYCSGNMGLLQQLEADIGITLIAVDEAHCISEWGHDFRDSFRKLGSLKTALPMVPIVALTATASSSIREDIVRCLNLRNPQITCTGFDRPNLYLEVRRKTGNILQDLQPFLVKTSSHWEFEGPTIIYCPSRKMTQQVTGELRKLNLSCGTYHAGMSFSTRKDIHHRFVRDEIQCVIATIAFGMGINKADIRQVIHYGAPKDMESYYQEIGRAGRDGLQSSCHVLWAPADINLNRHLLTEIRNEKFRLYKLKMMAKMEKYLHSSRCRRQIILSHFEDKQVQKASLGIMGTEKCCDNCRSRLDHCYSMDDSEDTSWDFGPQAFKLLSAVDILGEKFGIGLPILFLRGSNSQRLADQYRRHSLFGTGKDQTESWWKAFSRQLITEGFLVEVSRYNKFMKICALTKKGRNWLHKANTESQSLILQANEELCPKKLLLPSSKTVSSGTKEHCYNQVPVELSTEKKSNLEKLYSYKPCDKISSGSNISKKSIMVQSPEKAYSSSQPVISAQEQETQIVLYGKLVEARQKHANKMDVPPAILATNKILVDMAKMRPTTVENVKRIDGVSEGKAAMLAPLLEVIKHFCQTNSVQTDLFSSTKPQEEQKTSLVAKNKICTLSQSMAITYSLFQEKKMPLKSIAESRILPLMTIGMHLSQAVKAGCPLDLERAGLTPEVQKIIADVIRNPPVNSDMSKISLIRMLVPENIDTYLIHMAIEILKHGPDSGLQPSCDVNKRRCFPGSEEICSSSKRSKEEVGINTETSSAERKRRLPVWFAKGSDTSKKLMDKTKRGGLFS

AC50 [1]	AC50 [2]	Structure (SMILES)	AC50 (HCT116 cells)	AC50 (HT29 cells)
0.0015 to 0.005 µM	0.015 to 0.055 µM	C=CC(=O)N1CCc2nn(-c3ccc(C4CC4)cc3)c3c2C(C1)N(C(=O)c1cnc(C(F)(F)F)c(O)c1)CC3 (stereo not drawn) [Compound 1, 1-(2-(4-cyclopropylphenyl)-5-(5-hydroxy-6-(trifluoromethyl)nicotinoyl)-2,3,4,5,5a,6,8,9-octahydro-7H-1,2,5,7-tetraazabenzo[cd]azulen-7-yl)prop-2-en-1-one]	100 to 250 nM	> 3000 nM
> 0.055 µM	> 0.055 µM	C=CC(=O)N1CCc2nn(-c3ccc(C4CC4)cc3)c3c2C(C1)N(C(=O)c1ccc2c(c1)[nH]c(=O)n2C)CC3 (stereo not drawn) [Compound 70, 5-(7-acryloyl-2-(4-cyclopropylphenyl)-3,4,5,5a,6,7,8,9-octahydro-2H-1,2,5,7-tetraazabenzo[cd]azulene-5-carbonyl)-1-methyl-1,3-dihydro-2H-benzo[d]imidazol-2-one]	> 1000 nM	> 3000 nM
< 0.0015 µM	0.005 to 0.015 µM	C=CC(=O)N1CCc2nn(-c3ccc(C4CC4)cc3)c3c2C(C1)N(C(=O)c1c(N)cc(C(F)(F)F)nc1N)CC3 (stereo not drawn) [Compound 186, 1-(2-(4-cyclopropylphenyl)-5-(2,4-diamino-6-(trifluoromethyl)nicotinoyl)-2,3,4,5,5a,6,8,9-octahydro-7H-1,2,5,7-tetraazabenzo[cd]azulen-7-yl)prop-2-en-1-one]	1 to 100 nM	> 3000 nM
< 0.0015 µM	0.0015 to 0.005 µM	C=CC(=O)N1CCc2nn(-c3ccc(C4CCC4)cc3O)c3c2C(C1)N(C(=O)c1cnc(Cl)cc1N)CC3 (stereo not drawn) [Compound 144, 1-(5-(4-amino-6-chloronicotinoyl)-2-(4-cyclobutyl-2-hydroxyphenyl)-2,3,4,5,5a,6,8,9-octahydro-7H-1,2,5,7-tetraazabenzo[cd]azulen-7-yl)prop-2-en-1-one]	1 to 100 nM	> 3000 nM
< 0.0015 µM	0.0015 to 0.005 µM	C=CC(=O)N1CCc2nn(-c3ccc(C4CCC4)cc3)c3c2C(C1)N(C(=O)c1ccc(Br)c2[nH]nc(N)c12)CC3 (stereo not drawn) [Compound 158, 1-(5-(3-amino-7-bromo-1H-indazole-4-carbonyl)-2-(4-cyclobutylphenyl)-2,3,4,5,5a,6,8,9-octahydro-7H-1,2,5,7-tetraazabenzo[cd]azulen-7-yl)prop-2-en-1-one]	1 to 100 nM	> 3000 nM
< 0.0015 µM	0.015 to 0.055 µM	C=CC(=O)N1CCc2nn(-c3ccc(C4CCC4)cc3O)c3c2C(C1)N(C(=O)c1cnc(C(F)(F)F)c(SC)c1)CC3 (stereo not drawn) [Compound 89, 1-(2-(4-cyclobutyl-2-hydroxyphenyl)-5-(5-(methylthio)-6-(trifluoromethyl)nicotinoyl)-2,3,4,5,5a,6,8,9-octahydro-7H-1,2,5,7-tetraazabenzo[cd]azulen-7-yl)prop-2-en-1-one]	1 to 100 nM	> 3000 nM
